The test system of assay [1] is AR. The experiment in a line: AR transactivation assay, MMTV-CAT reporter, transient transfection (Example 1). Type of assay: cell-based, human. Particulars: DU145 cells; wild type AR; 1 nM DHT. The procedure:
Human prostate cancer DU145 or PC3 cells, or human lung carcinoma cells NCI H1299 were grown in Dulbecco's minimal essential medium (DMEM) containing penicillin (25 U/ml), streptomycin (25˜g/ml), and 5% fetal calf serum (FCS). One hour before transfection, the medium was changed to DMEM with 5% charcoal-stripped FCS. […] A β-galactosidase expression plasmid, pCMV-β-gal, was used as an internal control for transfection efficiency.
The medium was changed 24 hr posttransfection and the cells treated with either steroid hormones or hydroxyflutamide, and cultured for an additional 24 hr. Cells were harvested and assayed for CAT activity after the cell lysates were normalized by using β-galactosidaseas an internal control. Chloramphenicol acetyltransferase (CA) activity was visualized by PhosphorImager (Molecular Dynamics) and quantitated by ImageQuant software (Molecular Dynamics).
Target sequence in this assay (P10275 whole entry): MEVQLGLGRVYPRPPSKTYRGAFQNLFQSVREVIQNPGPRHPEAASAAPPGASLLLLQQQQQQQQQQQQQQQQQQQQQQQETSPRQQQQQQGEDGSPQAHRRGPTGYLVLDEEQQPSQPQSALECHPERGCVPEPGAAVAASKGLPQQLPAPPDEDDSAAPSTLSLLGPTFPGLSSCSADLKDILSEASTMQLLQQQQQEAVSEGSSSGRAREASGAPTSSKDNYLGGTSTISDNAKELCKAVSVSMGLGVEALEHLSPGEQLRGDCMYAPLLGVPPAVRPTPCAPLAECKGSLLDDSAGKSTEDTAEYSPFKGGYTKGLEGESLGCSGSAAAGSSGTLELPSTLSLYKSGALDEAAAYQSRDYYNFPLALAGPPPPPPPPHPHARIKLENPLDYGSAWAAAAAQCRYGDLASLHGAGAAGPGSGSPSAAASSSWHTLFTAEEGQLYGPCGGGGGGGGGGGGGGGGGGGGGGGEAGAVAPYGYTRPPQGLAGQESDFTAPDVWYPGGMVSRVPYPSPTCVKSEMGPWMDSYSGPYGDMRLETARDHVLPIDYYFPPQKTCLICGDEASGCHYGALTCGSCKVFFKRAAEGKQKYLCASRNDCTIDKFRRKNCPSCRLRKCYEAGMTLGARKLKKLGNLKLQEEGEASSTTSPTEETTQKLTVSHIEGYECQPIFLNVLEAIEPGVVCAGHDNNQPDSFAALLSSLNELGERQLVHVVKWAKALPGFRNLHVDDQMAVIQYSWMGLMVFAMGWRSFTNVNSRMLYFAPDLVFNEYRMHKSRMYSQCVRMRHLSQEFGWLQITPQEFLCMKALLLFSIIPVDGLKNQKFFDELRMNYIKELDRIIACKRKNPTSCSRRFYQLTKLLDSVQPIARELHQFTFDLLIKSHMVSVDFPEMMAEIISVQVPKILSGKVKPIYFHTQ

Assay [2] deals with AR. The experiment in a line: AR transactivation dual-luciferase assay with supervillin (Example 6). Type of assay: cell-based, human. The procedure:
In AR transactivation activity assays, transfections were performed using SuperFect (Qiagen, Chatsworth, Calif.) following protocols described in manual provided by Qiagen. Briefly, cells were plated on 35 mm dishes and after 24 h were transfected using the SuperFect kit. The total DNA amount was adjusted to 2 μg with pSG5 or pEGFP vectors. The medium was changed to DMEM with 10% CD-FBS 2 h after transfection. After 24 h, the DMEM with 10% CD-FBS was changed again, and the cells were treated with various steroids. Cells were harvested after 24 h for dual-luciferase assay as described in protocol provided by Promega. At least three independent experiments were carried out in each case.
Target sequence in this assay (P10275 with tags, fused parts or gaps DEL79-80/DUP473-473): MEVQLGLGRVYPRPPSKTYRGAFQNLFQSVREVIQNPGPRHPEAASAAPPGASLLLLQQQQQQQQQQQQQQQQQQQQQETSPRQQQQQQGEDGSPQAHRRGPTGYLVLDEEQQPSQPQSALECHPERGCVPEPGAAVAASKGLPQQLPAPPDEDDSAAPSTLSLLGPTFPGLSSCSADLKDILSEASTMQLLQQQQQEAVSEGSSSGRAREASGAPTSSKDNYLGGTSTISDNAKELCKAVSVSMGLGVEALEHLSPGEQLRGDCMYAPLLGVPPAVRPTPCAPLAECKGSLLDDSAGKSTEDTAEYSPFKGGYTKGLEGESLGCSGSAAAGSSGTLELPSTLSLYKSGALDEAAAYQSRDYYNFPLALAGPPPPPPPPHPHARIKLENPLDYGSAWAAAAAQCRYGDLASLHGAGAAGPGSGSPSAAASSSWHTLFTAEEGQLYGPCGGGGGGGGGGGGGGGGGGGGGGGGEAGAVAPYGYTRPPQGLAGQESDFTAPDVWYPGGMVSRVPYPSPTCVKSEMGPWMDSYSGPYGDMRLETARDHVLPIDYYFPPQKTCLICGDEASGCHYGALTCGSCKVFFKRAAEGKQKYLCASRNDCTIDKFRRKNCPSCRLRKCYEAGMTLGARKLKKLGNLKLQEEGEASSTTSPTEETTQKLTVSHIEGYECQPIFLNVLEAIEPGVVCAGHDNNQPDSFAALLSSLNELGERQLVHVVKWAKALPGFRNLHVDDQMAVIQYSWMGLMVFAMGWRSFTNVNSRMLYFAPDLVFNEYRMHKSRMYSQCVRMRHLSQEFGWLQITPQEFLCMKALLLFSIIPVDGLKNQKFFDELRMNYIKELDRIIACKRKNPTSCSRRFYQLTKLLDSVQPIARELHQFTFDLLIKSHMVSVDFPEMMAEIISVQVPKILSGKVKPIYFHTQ

In the case of “ARA70: ligand-enhanced AR coregulator, full length ARA70”, in the assay with AR [1], the “AR transcription activity with cotransfected coactivator” value was found to be 36 fold.

On to “SV: supervillin, 205 kDa actin binding protein; bovine SV (a.a. 1-1792) used in reporter assays”, for which the “enhancement of AR transactivation” value in the assay with AR [2] (C2C12 muscle cells, bSV:AR plasmids 25:1 and 50:1, DHT) is listed as 3-8 fold. In the assay on AR [2] (COS-1 cells, 10 nM DHT, MMTV-Luc), the “AR transactivation with EGFP-bSV construct” value is listed as 132 fold. Also, in the assay with AR [2] (COS-1 cells, 10 nM steroid), the “effect on Adiol induced AR transactivation” value is listed as “slightly enhances”; the “effect on E2- or HF-induced AR transactivation” value was “marginal effect”; the “effect on T and DHT induced AR transactivation” value is reported as “significantly enhances”.

(Values after patent US20060270591A1, “Androgen receptor coregulators” (priority 2002, published 2006).)
